From patent US20050191668A1, “Methods of using peroxisome proliferator-activated receptor alpha target genes” (priority 2004, published 2005) come the findings set out here.

What all share (type): cell-based, human
For experiment [1], the system named is Pa9 gene. Description: Pa9 gene expression by real-time RT-PCR in HuH7 hepatocytes. The note with it: HuH7 hepatocytes. From the text:
(§1) Human hepatocyte HuH7 cells, which are epithelial cells of liver, were obtained from Japan Health Science Research Resources Bank (Osaka, Japan). Human primary adipocytes, which are connective tissue cells specialized for the synthesis and storage of fat, were obtained from Zen-Bio, Inc (Research Triangle Park, NC). Human primary skeletal muscle cells (SKMC) were obtained from Cambrex Bio Science (Walkersville, Md.). PPARα agonists, Wy14643 (Agatha, et al, 2000, Archives of Biochemistry and Biophysics 380:353-359) and fenofibrates were obtained from Cayman Chemical (Ann Arbor, Mich.) and Sigma (St Louis, Mo.), respectively.
(§2) Human HuH7 cells were cultured in Dulbecco's Modified Eagle Medium with 10% Fetal Bovine Serum (Gibco, N.Y.). Cells were treated with charcoal-stripped, delipidated calf serum (5%) (Sigma, St Louis, Mo.) for about 4-18 hours. Then, cells were treated with different concentrations of PPARα agonist (Wy14643 or fenofibrates) for about 20-24 h. Human SKM cells were cultured in Skeletal Muscle Growth Medium (Cambrex Bio Science, Walkersville, Md.), and were treated with different concentrations of PPARα agonist (Wy14643 or fenofibrates) for about 18-20 hours. Human primary adipocytes were cultured in Preadipocyte Medium, (Cat #PM—1, Zen-Bio, Inc., Research Triangle Park, NC), and were treated with different concentrations of PPARα agonist (Wy14643 or fenofibrates) for about 18-20 hours.
(§3) Total RNA was purified from cultured cells following the protocol provided by the manufacturer (Trizon method, Invitrogen Inc. Ca). The polymerase chain reaction (PCR) primers and fluorescent probes (TagMan probes) for Pa9, Pa13, and Pa21 were designed from GenBank sequences of accession numbers W30988, AB000584, and NM_080725, respectively. The primers and probes were designed using the software PrimerDesign (Applied Biosystems, Foster City, Calif.). The PCR primers for Pa9 were SEQ ID NO: 7, (5-[…]) and SEQ ID NO: 8 (5-[…]). […] The PCR primers for Pa13 were SEQ ID NO: 10 (5-[…], T) and SEQ ID NO: 11 (5-[…] T). […] The PCR primers for Pa21 were SEQ ID NO: 13 (5-[…] C) and SEQ ID NO: 14 (5-[…]). […] All primers and probes were synthesized by Keystone Labs (Camarillo, Calif.).
(§4) Reverse transcription (RT) and PCR were conducted in one step using “One-Step RT-PCR Master Mix Reagent” kit (Applied Biosystems, Foster City, Calif.) in ABI PRISM 7700 Sequence Detection System (Applied Biosystems). Each reaction was performed in a total volume of 25 μl containing 40 ng of total RNA. The reaction condition was: 48° C. for 30 minutes, 60° C. for 30 minutes, 94° C. for 5 minutes, followed by 40 cycles of 94° C. for 20 seconds and 60° C. for 1 minute. The primers for 18S ribosomal RNA were developed and provided by Applied Biosystems. The measurement of human 18S ribosomal RNA was used as an internal control for normalization of measuring and loading errors. PCR data were collected by Ct value (the cycle number at which logarithmic PCR plots cross a calculated threshold line) according to the manufacturer's guidelines and the value was used to determine the Δ^Ct (Ct of the target gene minus the Ct of 18S ribosomal RNA controls). Relative mRNA level was calculated using the equation 2^−ΔΔCt as described previously (Heid et al., 1996, Genome Res. 6:986-994).

Experiment [2] concerns Pa13 gene. Description: Pa13 gene expression by real-time RT-PCR in HuH7 hepatocytes.
Text: as §1, §2, §3, §4

The test system of experiment [3] is Pa21 gene. Briefly: Pa21 gene expression by real-time RT-PCR in HuH7 hepatocytes.
Text: as §1, §2, §3, §4

In experiment [4] the test system is Pa9 gene. Briefly: Pa9 gene expression by real-time RT-PCR in primary skeletal muscle cells. Particulars: about 18-20 hours, vehicle control = 100.
Text: as §1, §2, §3, §4
The nucleotide sequence of the human FDRG gene (AX278133) is provided in SEQ ID NO: 1 and the sequence alignment between W30988 and FDRG gene is shown in FIG. 1. […] Quantitative real-time RT-PCR was performed to test whether gene expression of the human FDRG gene is regulated by PPARα.

For experiment [5], the system named is Pa13 gene. Briefly: Pa13 gene expression by real-time RT-PCR in primary skeletal muscle cells. The note with it: about 18-20 hours, vehicle control = 100.
Text: as §1, §2, §3, §4

Experiment [6] concerns Pa21 gene. Description: Pa21 gene expression by real-time RT-PCR in primary skeletal muscle cells. The note with it: about 18-20 hours, vehicle control = 100.
Text: as §1, §2, §3, §4

For experiment [7], the system named is Pa9 gene. Description: Pa9 gene expression by real-time RT-PCR in primary adipocytes. The note with it: 50 uM, about 18-20 hours, vehicle control = 100.
Text: as §1, §2
Total RNA was purified from cultured cells following the protocol provided by the manufacturer (Trizon method, Invitrogen Inc. Ca). The polymerase chain reaction (PCR) primers and fluorescent probes (TagMan probes) for Pa9, Pa13, and Pa21 were designed from GenBank sequences of accession numbers W30988, AB000584, and NM_080725, respectively. The primers and probes were designed using the software PrimerDesign (Applied Biosystems, Foster City, Calif.). The PCR primers for Pa9 were SEQ ID NO: 7, (5-[…]) and SEQ ID NO: 8 (5-[…]). […] The PCR primers for Pa13 were SEQ ID NO: 10 (5-[…], T) and SEQ ID NO: 11 (5-[…] T). […] The PCR primers for Pa21 were SEQ ID NO: 13 (5-[…] C) and SEQ ID NO: 14 (5-[…]). […]
Reverse transcription (RT) and PCR were conducted in one step using “One-Step RT-PCR Master Mix Reagent” kit (Applied Biosystems, Foster City, Calif.) in ABI PRISM 7700 Sequence Detection System (Applied Biosystems). […] PCR data were collected by Ct value (the cycle number at which logarithmic PCR plots cross a calculated threshold line) according to the manufacturer's guidelines and the value was used to determine the Δ^Ct (Ct of the target gene minus the Ct of 18S ribosomal RNA controls). Relative mRNA level was calculated using the equation 2^−ΔΔCt as described previously (Heid et al., 1996, Genome Res. 6:986-994).

For experiment [8], the system named is Pa13 gene. Description: Pa13 gene expression by real-time RT-PCR in primary adipocytes. The note with it: about 18-20 hours, vehicle control = 100.
Text: as §1, §2, §3, §4

In experiment [9] the test system is Pa21 gene. Briefly: Pa21 gene expression by real-time RT-PCR in primary adipocytes. The note with it: about 18-20 hours, vehicle control = 100.
Text: as §1, §2, §3, §4

The mark [10] stands for this setting: 3 uM, about 20-24 h, vehicle control = 100.
Where [11] appears, read: 10 uM, about 20-24 h, vehicle control = 100.
Setting [12] is: 30 uM, about 20-24 h, vehicle control = 100.
[13] abbreviates: 100 uM, about 20-24 h, vehicle control = 100.
The mark [14] stands for this setting: 300 uM, about 20-24 h, vehicle control = 100.
Where [15] appears, read: 1 μM, vehicle control = 100 (Table 4).

For the compound `CC(C)OC(=O)C(C)(C)Oc1ccc(C(=O)c2ccc(Cl)cc2)cc1` [Fenofibrate], the “Pa9 (W38098) gene expression, Percentage ± SE (%)” value (shortened to “Pa9 … Percentage ± SE (%)”) is 110 ± 12.7% with Pa9 gene [1] (setting [10]); 90 ± 23% in the experiment on Pa9 gene [1] (setting [11]); 80 ± 2% in the experiment with Pa9 gene [1] (setting [12]); 140 ± 37.1% in the experiment on Pa9 gene [1] (setting [13]); 200 ± 11.5% with Pa9 gene [1] (setting [14]); 120 ± 34.2% in the experiment on Pa9 gene [4] (3 uM). Further, the “Pa9 … Percentage ± SE (%)” value in the experiment with Pa9 gene [4] (10 uM) is 230 ± 15.7%; with Pa9 gene [4] (30 uM), 340 ± 7.4%; in the experiment on Pa9 gene [4] (100 uM), 350 ± 19.7%; with Pa9 gene [4] (300 uM) it was 550 ± 14%; in the experiment on Pa9 gene [7], 127 ± 1.5%. Besides, the “Pa13 (N26311) gene expression, Percentage ± SE (%)” value (shortened to “Pa13 … Percentage ± SE (%)”) in the experiment on Pa13 gene [2] (setting [10]) was found to be 180 ± 43.9%; in the experiment on Pa13 gene [2] (setting [11]), 160 ± 55%; in the experiment on Pa13 gene [2] (setting [12]) it was 250 ± 4.8%; in the experiment on Pa13 gene [2] (setting [13]) it was 750 ± 10.8%; with Pa13 gene [2] (setting [14]) it was 710 ± 7.3%; with Pa13 gene [5] (3 uM) it was 72.7 ± 30.9%. The “Pa13 … Percentage ± SE (%)” value was 63.6 ± 11.8% in the experiment on Pa13 gene [5] (10 uM); 181.8 ± 3% in the experiment with Pa13 gene [5] (30 uM); 218.2 ± 2.9% in the experiment on Pa13 gene [5] (100 uM); 309.1 ± 7.4% in the experiment with Pa13 gene [5] (300 uM); 70 ± 27.1% in the experiment with Pa13 gene [8] (10 uM); 45 ± 13.3% in the experiment on Pa13 gene [8] (50 uM). Besides, the “Pa13 … Percentage ± SE (%)” value with Pa13 gene [8] (250 uM) is recorded as 206 ± 34.4%. Moreover, the “Pa21 (H4960) gene expression, Percentage ± SE (%)” value (shortened to “Pa21 … Percentage ± SE (%)”) in the experiment with Pa21 gene [3] (setting [10]) is 63.6 ± 17.3%; with Pa21 gene [3] (setting [11]) it was 227.3 ± 54%; with Pa21 gene [3] (setting [12]) it was 209.1 ± 20.4%; in the experiment with Pa21 gene [3] (setting [13]), 300 ± 20.6%; with Pa21 gene [3] (setting [14]), 336.4 ± 24.3%; in the experiment on Pa21 gene [6] (3 uM), 110 ± 14.5%. The “Pa21 … Percentage ± SE (%)” value is reported as 290 ± 1.4% in the experiment on Pa21 gene [6] (10 uM); 280 ± 52.5% with Pa21 gene [6] (30 uM); 63 ± 5.6% in the experiment with Pa21 gene [9] (10 uM); 109 ± 4.5% in the experiment on Pa21 gene [9] (50 uM); 121 ± 17.3% in the experiment on Pa21 gene [9] (250 uM).
As for `CN(CCOc1ccc(CC2SC(=O)NC2=O)cc1)c1ccccn1` (centres unmarked) [Rosiglitazone], the “Pa9 … Percentage ± SE (%)” value in the experiment with Pa9 gene [1] (setting [15]) worked out at 147 ± 31.2%. In addition, the “Pa13 … Percentage ± SE (%)” value with Pa13 gene [2] (setting [15]) is reported as 217 ± 20.2%. The “Pa21 … Percentage ± SE (%)” value with Pa21 gene [3] (setting [15]) was 97 ± 17.5%.
